Test results as given in paper PMC3923730 (Journal of Translational Medicine, 2014).
Where “and” joins values, the source holds several entries; their conditions need not be identical. Identical values can stand only once.

Key:
[1] = test system: myocardial infarction model in rats; design: method as in PMID 20215409; conditions: rat myocardial infarction model, 2.5 mg/kg formulated in HPBCD; cited from earlier work
[2] = Pharmacokinetics in rats (plasma); assay type: in vivo; conditions: rat plasma
Description: TRO40303 was administered by intravenous (i.v.) bolus to healthy rats at doses of 0.3, 1, 3 and 10 mg/kg in IL30 under isoflurane gas anaesthesia. A maximum of 0.25 mL of blood was collected into lithium heparin tubes at 5, 15 and 30 min, 1 h, 2 h, 4 h, 8 h and 24 h after drug administration (3 rats per time point). The blood samples were cooled on ice and plasma samples were prepared within 60 min of sampling by centrifugation at 1500 g at 4 °C for 10 min and stored at –20°C until analysis. For heart level measurements, TRO40303 was administrated i.v. to rats undergoing the myocardial infarction procedure at the dose of 1 mg/kg in IL30 either 10 min before CAO or 10 min before CAR. Five min after CAR, rats were anesthetised and sacrificed, hearts were isolated and washed with saline. Tissue from AAR was separated from the remainder of the left ventricle; samples were frozen and stored at –20°C until analysis. After TRO40303 plasma concentration analysis, TRO40303 plasma AUC(0-∞) (the area under the curve extrapolated from time zero to time infinity), was calculated using Kinetica™, version 4.4.1 (Thermo Electron Corporation, Philadelphia, PA 19103, USA). The results were analyzed in comparison with previous pharmacokinetic data obtained with TRO40303 formulated in HPBCD at 2.5 mg/kg.
Thawed preclinical samples were extracted with acetonitrile, centrifuged, purified on SPEC C2 cartridge (Varian) for the heart samples and analysed along with calibration standards. Analysis was carried out on an Alliance 2695 (Waters) system interfaced to an API Quattro Micro (Waters) MS detector. Calculations were carried out with Waters QuanLynx software.

[3] = test system: Domestic Yorkshire pigs; assay: Porcine liposome-induced cardio-pulmonary distress model; assay type: in vivo; conditions: pig, 10 mg/kg i.v. liposomal formulation
Description: Domestic Yorkshire pigs (12-14 weeks, ~25 kg) received multiple i.v. injections of the test material via the external jugular vein at 10 mL/min as follows: saline as a negative control, the liposomal formulation of TRO40303 at 10 mg/kg and a bolus of Doxil® at 0.01 mg/kg as a positive control. Doxil® is a marketed liposomal formulation of doxorubicin administered intravenously that can provoke acute infusion-related reactions.
Hemodynamic changes were monitored continuously for at least 30 min after the end of each test material infusion. Systemic arterial blood pressure (SAP) and pulmonary arterial blood pressure (PAP) changes were evaluated.

[4] = test system: healthy male and post-menopausal female subjects; assay: Phase I trial safety and tolerability; assay type: in vivo; conditions: human
Description: A randomized, double-blind, placebo controlled study was performed to investigate the safety, tolerability and pharmacokinetics of single i.v. ascending doses of TRO40303 in healthy male and post-menopausal female subjects. The choice of the dose and flow rate escalation process is explained in the Result section. Seventy-two healthy volunteers were randomized, with 18 receiving a placebo and 54 an active liposomal formulation containing 20 mg/mL TRO40303 at final doses ranging from 0.5, 1, 2, 3.5, 6, 10 to 13 mg/kg with escalating flow rates from 0.04 mL/min to 35 mL/min. Within each group, 3 or 6 subjects received TRO40303 and 1 or 2 subjects received the same volume of placebo. The sample size was based on the number of doses and flow rates to be investigated. The 6 verum/2 placebo ratio per group is widely used in single ascending dose studies and provides adequate safety and pharmacokinetic information. The 3 verum/1 placebo ratio used in the last groups was chosen only to explore additional flow rates at previously studied doses.
Continuous recording of adverse events, continuous blood pressure monitoring for 2 hours after dosing and 12-lead electrocardiogram (ECG) at pre-dose, 15 min, 1 h, 4 h, 8 h, 24 h, 72 h and 96 h after end of infusion were performed. Vital signs, physical examination, haematology, blood biochemistry, urinalysis and haemostasis were performed before the study, at specific times after dosing and at the “end of study visit”, 7 days after administration. Blood biochemistry analysis included ASAT, ALAT, alkaline phosphatase, triglycerides, total cholesterol, HDL-cholesterol and LDL-cholesterol.

[5] = Solubility in formulation vehicle; assay type: physicochemical; conditions: in Intralipid® 30 (IL30), concentrations up to
[6] = 0.5 mg/kg, 0.08 mL/min, back pain
[7] = 2 mg/kg, 0.64 mL/min, injection site haematoma
[8] = 3.5 mg/kg, 5 mL/min, presyncope
[9] = 6 mg/kg, 7.5 mL/min, infusion site inflammation
[10] = 6 mg/kg, 23 mL/min, vision blurred
[11] = single i.v. 0.5-13 mg/kg, flow rates 0.04-35 mL/min

**Q.** Which “reduction of infarct size” value [1] does the source give for `CC(C)CCC[C@@H](C)[C@H]1CC[C@H]2[C@@H]3CC/C(=N\O)[C@](C)(CCCO)[C@H]3CC[C@]12C` [TRO40303, 3,5-seco-4-nor-cholestan-5-one oxime-3-ol] here?
**A.** 38%

**Q.** What about the “AUC(0-∞)” value ([2]; 3 mg/kg i.v. in IL30, satellite animals) of the same compound?
**A.** 14000 ng·h/mL

**Q.** And the C5min ([2]; 3 mg/kg i.v. in IL30, satellite animals, 3 mg/kg)?
**A.** 57.9 μM and 23.5 μg/mL

**Q.** And the “AUC(0-∞)” value ([2]; 10 mg/kg i.v. in IL30, satellite animals)?
**A.** 44800 ng·h/mL

**Q.** What about the C5min ([2]; 10 mg/kg i.v. in IL30, satellite animals, 10 mg/kg) of the same compound?
**A.** 130 μM and 52.8 μg/mL

**Q.** And the “change in systemic arterial blood pressure (SAP)” value [3]?
**A.** not changed

**Q.** And the “Emergent AEs: Description” value ([4]; 0.5 mg/kg, 0.08 mL/min)?
**A.** 2 episodes of back pain

**Q.** And the “Emergent AEs: Intensity” value [4, 6]?
**A.** 1 Moderate and 1 Mild

**Q.** What about the “Emergent AEs: Relationship” value [4, 6] of the same compound?
**A.** Excluded

**Q.** What about the “Emergent AEs: Description” value ([4]; 2 mg/kg, 0.64 mL/min) of the same compound?
**A.** 1 episode of injection site haematoma

**Q.** What about the “Emergent AEs: Intensity” value [4, 7] of the same compound?
**A.** Moderate

**Q.** What about the “Emergent AEs: Relationship” value [4, 7] of the same compound?
**A.** Excluded

**Q.** What about the “Emergent AEs: Description” value ([4]; 3.5 mg/kg, 5 mL/min) of the same compound?
**A.** 1 episode of presyncope

**Q.** And the “Emergent AEs: Intensity” value [4, 8]?
**A.** Moderate

**Q.** And the “Emergent AEs: Relationship” value [4, 8]?
**A.** Unlikely

**Q.** What about the “Emergent AEs: Description” value ([4]; 6 mg/kg, 7.5 mL/min) of the same compound?
**A.** 1 episode of infusion site inflammation

**Q.** What about the “Emergent AEs: Intensity” value [4, 9] of the same compound?
**A.** Moderate

**Q.** And the “Emergent AEs: Relationship” value [4, 9]?
**A.** Probable

**Q.** And the “Emergent AEs: Description” value ([4]; 6 mg/kg, 23 mL/min)?
**A.** 1 episode of vision blurred

**Q.** What about the “Emergent AEs: Intensity” value [4, 10] of the same compound?
**A.** Moderate

**Q.** And the “Emergent AEs: Relationship” value [4, 10]?
**A.** Possible

**Q.** And the “changes in vital signs, ECG parameters, laboratory tests or physical examinations” value ([4]; any time, any dose group)?
**A.** No relevant changes

**Q.** What about the clinical tolerability [4, 11] of the same compound?
**A.** well tolerated clinically

**Q.** And the serious adverse events [4, 11]?
**A.** no serious adverse events

**Q.** And the solubility [5]?
**A.** ~ 6 mg/mL
